Experimental data published in patent publication US9005677B2, “Autophagy enhancer for treatment of neurodegenerative diseases” (Macau University of Science and Technology, priority 2013, dated 2015).

Test system: GFP-LC3 puncta formation in PC12 cells
Experiment: Quantification of autophagy GFP-LC3 puncta
Type: cell-based, rat
Settings: fluorescent microscopy
Experimental: Quantification of autophagy GFP-LC3 Puncta. GFP-LC3 puncta formation was quantified as described previously. In brief, cells grown on coverslips in a 6-well plate were fixed in 4% paraformaldehyde for 20 minutes at room temperature and then rinsed with PBS. Slides were mounted with FluorSave™ mounting media (Calbiochem, San Diego, Calif.) and examined by fluorescence microscopy. The number of GFP-positive cells with GFP-LC3 puncta formation was examined under the Nikon ECLIPSE 80i microscope. Representative images were captured with CCD digital camera Spot RT3™ (Diagnostic Instruments, Inc., Melville, N.Y.). To quantify autophagy, the percentage of cells with punctate GFP-LC3 fluorescence was calculated by counting the number of the cells with punctate GFP-LC3 fluorescence in GFP-positive cells. A minimum of 150 cells from 3 randomly selected fields was scored.

Row | SMILES | GFP-LC3 puncta formation
1 | CC1(C)CCC2(C(=O)O)C(O)CC3(C)C(=CCC4C5(C)CC(O)C(O)C(C)(CO)C5CCC43C)C2C1 (centres unmarked) [polygalacic acid] | no autophagy activity
2 | CC1(C)CC[C@]2(C(=O)O)CCC3=C([C@@H](CCl)C[C@@H]4[C@@]5(C)C[C@H](O)[C@H](O)[C@@](C)(C(=O)O)[C@@H]5CC[C@@]34C)[C@@H]2C1 [senegenin] | no autophagy activity
